In brackets after ≈: the same amount, converted by molar mass.
What was measured:
[1] = In vitro cytotoxicity (CC50); assay type: cell-based; conditions: human, HUVEC cells
From the text: Toxicity is a major concern of drug discovery and development, and the selectivity index (SI) is used as the evaluation parameter of drug potential of the test samples by comparing the toxicity on a human cell line (CC50) and the selective inhibitory effect on P. falciparum (IC50) calculated here as CC50/IC50. We decided to evaluate in vitro cytotoxicity of the active derivatives 38, 39, 50, 52, 65, 67, 70, and 71 by determining their 50% cytotoxic concentrations. The results are presented in Table 3, presenting only those CC50 values > 100 μmol/L, reaching selectivity indexes > 10. The cytotoxic concentration at 150 μmol/L was not be determined because of a lack of solubility of the tested molecule in the culture medium. Moreover, the toxicity of these derivatives was also evaluated against two other cell lines: hepatocellular liver carcinoma cell line (Hep G2) and cervical carcinoma (HeLa), finding CC50 values > 100 μmol/L.

zebrafish embryos = experiment: Zebrafish embryo toxicity test; assay type: in vivo; conditions: for survival of zebrafish embryos: 100 μmol/L, 52 h
Description: Toxicity assays were carried out using the method of Wang et al. ([2011]). Briefly, the normal embryos were selected and transferred into a 24-well plate. The embryos at 1 h postfertilization (hpf) were exposed by immersion in E3 embryo medium containing the derivative in a 1% (v/v) DMSO final solvent concentration in a 24-well plate. The developmental phenotypes of the experimental status of the embryos were observed every 24 h for 72 h and were photographed with a charge-coupled device (CCD) camera.

[2] = tested on: chloroquine sensitive HB3 strain of P. falciparum; experiment: In vitro antiplasmodial assay (Pico-Green growth inhibition); assay type: cell-based, Plasmodium falciparum; conditions: for P. falciparum SI, Selectivity Index (CC50/IC50): CC50 HUVEC / IC50 P. falciparum; for IC50: Plasmodium falciparum, Erythrocyte, HB3 strain in human erythrocytes, read-out: P. falciparum IC50
Description: In vitro antiplasmodial activity was performed by culturing human erythrocytes and infecting them with P. falciparum, as reported by Trager and Jensen ([1976]). Briefly, the chloroquine sensitive HB3 strain of P. falciparum-infected O + erythrocytes was cultured in RPMI 1640 medium supplemented with 10% human serum (from O + blood) at a hematocrit of 2% erythrocytes at 37 °C with a gas mixture containing 90% N2, 5% CO2, and 5% O2. Parasites were synchronized with 5% D-sorbitol (Lambros and Vanderberg [1979]). P. falciparum growth inhibition bioassays were performed with the procedure as described by Corbett et al. ([2004]), which used Pico-Green, a double stranded-DNA fluorescent dye to test the effect of compounds.

C. socialis = experiment: Diatom growth inhibition assay (antialgal activity); assay type: cell-based, Chaetoceros socialis; conditions: Chaetoceros socialis, 48 h, chlorophyll a of attached microalgae, read-out: EC50 C. socialis
Description: (§1) The antialgal activity against the microalgae P. tricornutum Bohlin, C. vulgaris, C. socialis, N. laevissima, and N. exigua was evaluated by the method of Ortlepp et al. ([2008]). Briefly, the microalgae were grown in sterilized BG11 medium under light intensity of 2500 lx and 12 h: 12 h light: dark cycle at temperature of 20 ℃. The microalgae were grown to reach the logarithmic phase (approximately 5 × 10^5 cells/ml), which were used for microalgae growth inhibition assay. The compounds 1–71 were first dissolved in a small amount of DMSO and then diluted with 0.22 μm of filtered seawater (FSW) to achieve a range of concentrations from 0.625 to 50 μg/ml. Ten microliters of the compound solution was added to multiwell Petri dishes containing a 1-mL suspension of the microalgae (approximately 12 × 10^4 cells/ml). FSW with DMSO was used as a negative control, and solutions of SeaNine 211 in seawater were used as positive controls. After the plates were incubated for 48 h (16 ± 1 ℃) under continuous light, the FSW with non-attached microalgae was removed. The amount of chlorophyll a in attached microalgae was determined with a spectrophotometer (Beckman, model DU650, USA). Then the EC50 (inhibits 50% of settlement of cyprids in comparison with the control) was calculated using the Probit software program.

P. tricornutum Bohlin = experiment: as above; assay type: cell-based, Phaeodactylum tricornutum Bohlin; conditions: Phaeodactylum tricornutum, 48 h, chlorophyll a of attached microalgae, read-out: EC50 P. tricornutum
Description: as §1

C. vulgaris = experiment: as above; assay type: cell-based, Chlorella vulgaris; conditions: Chlorella vulgaris; 48 h, chlorophyll a of attached microalgae; read-out: EC50 C. vulgaris
Description: as §1

Staphylococcus aureus = experiment: Antimicrobial assay (serial dilution, MIC); assay type: cell-based; conditions: 37 °C, 24 h, read-out: minimum inhibitory concentration (MIC) S. aureus
Description: The antimicrobial activities were carried out by a serial dilution technique using 96-well microtiter plates (Pierce et al. [2008]). The derivatives were dissolved in DMSO to obtain a stock solution. Microbial species were cultured overnight at 37 °C in LB broth and diluted to 10^6 cfu/ml when used. LB broth was used as a blank control, and DMSO was used as a negative control, while ciprofloxacin was used as a positive control. The plates were incubated at 37 °C for 24 h.

[3] = tested on: P. tricornutum Bohlin, C. vulgaris, C. socialis, N. laevissima, and N. exigua; experiment: Diatom growth inhibition assay, whole panel; assay type: cell-based; conditions: Chlorella vulgaris; selective and moderate activities; read-out: EC50 antialgal, range over compounds and algae
Description: as §1

N. laevissima = experiment: Diatom growth inhibition assay (antialgal activity); assay type: cell-based, Navicula laevissima; conditions: Sellaphora laevissima, 48 h, chlorophyll a of attached microalgae, read-out: EC50 N. laevissima
Description: as §1

N. exigua = experiment: as above; assay type: cell-based, Navicula exigua; conditions: 48 h, chlorophyll a of attached microalgae, read-out: EC50 N. exigua
Description: as §1

[4] = tested on: larval settlement of the barnacle Balanus Amphitrite; parameters: method as in Shao et al. [2011]; conditions: ref Shao et al. [2011]; cited from earlier work

For `COc1cc2c(c(OCc3ccc(-c4ccccc4C#N)cc3)c1)C(=O)OC(C)CC=CC1OC(C)(C)OC1C(O)CC=C2` (centres unmarked) [Compound 38], the CC50 [1] was > 100 µM, the “survival of zebrafish embryos” value (zebrafish embryos) was “All embryos survived” and the “P. falciparum SI, Selectivity Index (CC50/IC50)” value [2] was > 12. It also gave an IC50 [2] of 8.06 µM.

For `COC(=O)c1ccccc1-c1ccc(COc2cc(OC)cc3c2C(=O)OC(C)CC=CC2OC(C)(C)OC2C(O)CC=C3)cc1` (centres unmarked) [Compound 39], the CC50 [1] was > 100 µM, the “survival of zebrafish embryos” value (zebrafish embryos) was “All embryos survived” and the “P. falciparum SI, Selectivity Index (CC50/IC50)” value [2] was > 14. It also gave an IC50 [2] of 6.69 µM.

For `COc1cc2c(c(OCc3ccc(C(C)(C)C)cc3)c1)C(=O)OC(C)CC=CC(O)C(O)C(O)CC=C2` (centres unmarked) [Compound 26], the EC50 (C. socialis) was 18.4 µM, the EC50 (P. tricornutum Bohlin) was 25.7 µM and the EC50 (C. vulgaris) was > 10 µM. For the same compound, the MIC (Staphylococcus aureus) was 25 µM (≈ 12.8 µg/mL), the EC50 [3] was 11 to 32.5 µM and the EC50 (N. laevissima) was > 10 µM. The “death of zebrafish embryos” value (zebrafish embryos; 50 μmol/L, after 24 h) was “all embryos died” and the EC50 (N. exigua) was > 10 µM.

In the case of `COc1cc(O)c2c(c1)/C=C/C[C@H](O)[C@@H]1OC(C)(C)O[C@H]1C=CC[C@H](C)OC2=O` [cochliomycin A], the “concentration of significant antifouling activity against larval settlement” value [4] is listed as 1.2 µg/mL.
